In ChEMBL document CHEMBL4311976, “Design, synthesis and biological evaluation of novel 7H-pyrrolo[2,3-d]pyrimidine derivatives as potential FAK inhibitors and anticancer agents” (Eur J Med Chem, 2019):

Legend:
[1] = organism: Homo sapiens; test: Inhibition of recombinant full length His-tagged human PKA catalytic domain expressed in Escherichia coli at 0.5 uM using Ser/Thr 01 as substrate in presence of ATP at Km concentration after 1 hr by Z'-LYTE assay relative to control
[2] = target: Discoidin domain-containing receptor 2 (Homo sapiens) (UniProt Q16832); test: Inhibition of recombinant GST-tagged human DDR2 (427 to 855 residues) expressed in baculovirus expression system at 0.5 uM after 1 hr by Lantha screen assay relative to control
[3] = target: Tyrosine-protein kinase Lck (Homo sapiens) (UniProt P06239); test: Inhibition of recombinant full length His-tagged human LCK expressed in baculovirus expression system at 0.5 uM using tyr 02 as substrate in presence of ATP at Km concentration after 1 hr by Z'-LYTE assay relative to control
[4] = target: Tyrosine-protein kinase ABL1 (Homo sapiens) (UniProt P00519); test: Inhibition of full-length His-tagged human ABL1 expressed in baculovirus expression system at 0.5 uM using tyr 02 as substrate in presence of ATP at Km concentration after 1 hr by Z'-LYTE assay relative to control
[5] = target: Hepatocyte growth factor receptor (Homo sapiens) (UniProt P08581); test: Inhibition of recombinant full length N-terminal His-tagged human cMET cytoplasmic domain (956 to 1390 residues) expressed in baculovirus expression system at 0.5 uM using tyr 06 as substrate in presence of ATP at Km concentration after 1 hr by Z'-LYTE assay relative to control
[6] = Half life in rat liver microsomes at 1 uM measured up to 1 hr by LC-MS/MS analysis; assay type: ADME, Microsome
[7] = target: Tyrosine-protein kinase ZAP-70 (Homo sapiens) (UniProt P43403); test: Inhibition of recombinant full length His-tagged human ZAP70 expressed in baculovirus expression system at 0.5 uM using tyr 07 as substrate in presence of ATP at Km concentration after 1 hr by Z'-LYTE assay relative to control
[8] = target: Tyrosine-protein kinase SYK (Homo sapiens) (UniProt P43405); test: Inhibition of recombinant full length GST-tagged human SYK expressed in baculovirus expression system at 0.5 uM using tyr 02 as substrate in presence of ATP at Km concentration after 1 hr by Z'-LYTE assay relative to control
[9] = target: Serine/threonine-protein kinase mTOR (Homo sapiens) (UniProt P42345); test: Inhibition of recombinant GST-tagged human mTOR catalytic domain (1360 to 2549 residues) expressed in baculovirus expression system at 0.5 uM using Ser/Thr 11 as substrate in presence of ATP at Km concentration after 1 hr by Z'-LYTE assay relative to control
[10] = target: Serine/threonine-protein kinase TBK1 (Homo sapiens) (UniProt Q9UHD2); test: Inhibition of recombinant full length GST-tagged human TBK1 expressed in insect cells at 0.5 uM using Ser/Thr 05 as substrate in presence of ATP at Km concentration after 1 hr by Z'-LYTE assay relative to control
[11] = Metabolic stability in rat liver microsomes assessed as compound remaining at 1 uM measured up to 1 hr in absence of NADPH by LC-MS/MS analysis; assay type: ADME, Microsome; conditions: read-out: Stability
[12] = target: Serine/threonine-protein kinase Chk1 (Homo sapiens) (UniProt O14757); test: Inhibition of recombinant full-legth His-tagged human CHK1 expressed in baculovirus expression system at 0.5 uM using Ser/Thr 19 as substrate in presence of ATP at Km concentration after 1 hr by Z'-LYTE assay relative to control
[13] = Intrinsic clearance in human liver microsomes at 1 uM measured up to 1 hr in presence of NADPH by LC-MS/MS analysis; assay type: ADME, Microsome; conditions: read-out: CLH
[14] = tested on: A549; test: Induction of apoptosis in human A549 cells assessed as necrotic cells at 1 uM after 72 hrs by Annexin V-FITC/propidium iodide staining-based flow cytometric analysis (reference value: 1.70%); assay type: functional
[15] = target: Receptor tyrosine-protein kinase erbB-2 (Homo sapiens) (UniProt P04626); test: Inhibition of recombinant His-tagged human HER2 (676 to 1255 residues) expressed in baculovirus expression system at 0.5 uM using tyr 06 as substrate in presence of ATP at Km concentration after 1 hr by Z'-LYTE assay relative to control
[16] = target: Focal adhesion kinase 1 (Homo sapiens, UniProt Q05397); test: Inhibition of recombinant full length GST-tagged human FAK cytoplasmic domain expressed in baculovirus expression system at 0.5 uM using tyr 07 as substrate in presence of ATP at Km concentration after 1 hr by Z'-LYTE assay relative to control
[17] = tested on: A549; test: Induction of apoptosis in human A549 cells assessed as early apoptotic cells at 1 uM after 72 hrs by Annexin V-FITC/propidium iodide staining-based flow cytometric analysis (reference value: 2.40%); assay type: functional
[18] = Intrinsic clearance in mouse liver at 1 uM measured up to 1 hr in presence of NADPH by LC-MS/MS analysis; assay type: ADME, tissue-based
[19] = tested on: A549; test: Induction of apoptosis in human A549 cells assessed as viable cells at 9 uM after 72 hrs by Annexin V-FITC/propidium iodide staining-based flow cytometric analysis (reference value: 94.66%); assay type: functional; conditions: A549, 72 h, read-out: Activity
[20] = Metabolic stability in human liver microsomes assessed as compound remaining at 1 uM measured up to 1 hr in absence of NADPH by LC-MS/MS analysis; assay type: ADME, Microsome; conditions: read-out: Stability
[21] = Metabolic stability in mouse liver microsomes assessed as compound remaining at 1 uM measured up to 1 hr in presence of NADPH by LC-MS/MS analysis; assay type: ADME, Microsome; conditions: read-out: Stability
[22] = tested on: A549; test: Induction of apoptosis in human A549 cells after 72 hrs by Annexin V-FITC/propidium iodide staining-based flow cytometric analysis; assay type: functional, cell-based
[23] = tested on: A549; test: Induction of apoptosis in human A549 cells assessed as necrotic cells at 3 uM after 72 hrs by Annexin V-FITC/propidium iodide staining-based flow cytometric analysis (reference value: 1.70%); assay type: functional
[24] = target: Serine/threonine-protein kinase PLK1 (Homo sapiens) (UniProt P53350); test: Inhibition of recombinant full length His-tagged human PLK1 expressed in baculovirus expression system at 0.5 uM using Ser/Thr 16 as substrate in presence of ATP at Km concentration after 1 hr by Z'-LYTE assay relative to control
[25] = target: Tyrosine-protein kinase BTK (Homo sapiens) (UniProt Q06187); test: Inhibition of recombinant full-legth His-tagged human BTK expressed in baculovirus expression system at 0.5 uM using tyr 01 as substrate in presence of ATP at Km concentration after 1 hr by Z'-LYTE assay relative to control
[26] = target: Macrophage colony-stimulating factor 1 receptor (Homo sapiens) (UniProt P07333); test: Inhibition of recombinant His-tagged human CSF1R cytoplasmic domain expressed in baculovirus expression system at 0.5 uM using tyr 01 as substrate in presence of ATP at Km concentration after 1 hr by Z'-LYTE assay relative to control

Serine/threonine-protein kinase PLK1 (Homo sapiens), sequence (P53350 whole entry): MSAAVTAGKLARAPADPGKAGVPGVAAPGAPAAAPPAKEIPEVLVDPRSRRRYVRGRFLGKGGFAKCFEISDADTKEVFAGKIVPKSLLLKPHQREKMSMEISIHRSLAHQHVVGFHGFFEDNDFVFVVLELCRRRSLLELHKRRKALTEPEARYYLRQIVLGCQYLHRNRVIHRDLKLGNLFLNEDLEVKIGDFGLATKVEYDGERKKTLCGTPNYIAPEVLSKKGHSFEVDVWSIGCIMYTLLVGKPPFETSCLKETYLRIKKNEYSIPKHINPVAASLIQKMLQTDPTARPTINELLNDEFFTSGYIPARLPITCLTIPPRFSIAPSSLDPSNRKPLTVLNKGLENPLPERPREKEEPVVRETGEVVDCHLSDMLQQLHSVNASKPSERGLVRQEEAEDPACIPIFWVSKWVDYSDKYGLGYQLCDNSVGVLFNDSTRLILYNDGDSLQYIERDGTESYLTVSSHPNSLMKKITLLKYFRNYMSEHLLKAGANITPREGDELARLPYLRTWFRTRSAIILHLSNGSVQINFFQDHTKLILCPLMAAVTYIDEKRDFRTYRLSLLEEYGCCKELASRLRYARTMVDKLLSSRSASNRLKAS
Tyrosine-protein kinase ZAP-70 (Homo sapiens), sequence (P43403 whole entry): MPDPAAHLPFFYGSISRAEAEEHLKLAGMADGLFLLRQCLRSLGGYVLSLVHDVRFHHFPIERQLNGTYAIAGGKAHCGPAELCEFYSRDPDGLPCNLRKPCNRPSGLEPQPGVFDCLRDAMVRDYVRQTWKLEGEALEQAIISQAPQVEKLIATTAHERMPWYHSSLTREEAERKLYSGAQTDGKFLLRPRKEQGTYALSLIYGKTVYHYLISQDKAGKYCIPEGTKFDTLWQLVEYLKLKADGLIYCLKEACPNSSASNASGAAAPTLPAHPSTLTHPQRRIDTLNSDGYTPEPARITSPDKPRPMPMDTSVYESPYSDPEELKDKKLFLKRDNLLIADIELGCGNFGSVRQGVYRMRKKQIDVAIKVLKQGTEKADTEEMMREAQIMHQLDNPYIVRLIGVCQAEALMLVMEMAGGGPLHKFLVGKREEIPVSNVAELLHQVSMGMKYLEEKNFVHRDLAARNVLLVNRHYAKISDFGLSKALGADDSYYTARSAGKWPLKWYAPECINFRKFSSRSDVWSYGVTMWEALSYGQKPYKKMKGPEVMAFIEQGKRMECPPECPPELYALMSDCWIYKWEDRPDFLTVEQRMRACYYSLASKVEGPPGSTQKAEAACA
Receptor tyrosine-protein kinase erbB-2 (Homo sapiens), sequence (P04626 whole entry, the tested form may be a part): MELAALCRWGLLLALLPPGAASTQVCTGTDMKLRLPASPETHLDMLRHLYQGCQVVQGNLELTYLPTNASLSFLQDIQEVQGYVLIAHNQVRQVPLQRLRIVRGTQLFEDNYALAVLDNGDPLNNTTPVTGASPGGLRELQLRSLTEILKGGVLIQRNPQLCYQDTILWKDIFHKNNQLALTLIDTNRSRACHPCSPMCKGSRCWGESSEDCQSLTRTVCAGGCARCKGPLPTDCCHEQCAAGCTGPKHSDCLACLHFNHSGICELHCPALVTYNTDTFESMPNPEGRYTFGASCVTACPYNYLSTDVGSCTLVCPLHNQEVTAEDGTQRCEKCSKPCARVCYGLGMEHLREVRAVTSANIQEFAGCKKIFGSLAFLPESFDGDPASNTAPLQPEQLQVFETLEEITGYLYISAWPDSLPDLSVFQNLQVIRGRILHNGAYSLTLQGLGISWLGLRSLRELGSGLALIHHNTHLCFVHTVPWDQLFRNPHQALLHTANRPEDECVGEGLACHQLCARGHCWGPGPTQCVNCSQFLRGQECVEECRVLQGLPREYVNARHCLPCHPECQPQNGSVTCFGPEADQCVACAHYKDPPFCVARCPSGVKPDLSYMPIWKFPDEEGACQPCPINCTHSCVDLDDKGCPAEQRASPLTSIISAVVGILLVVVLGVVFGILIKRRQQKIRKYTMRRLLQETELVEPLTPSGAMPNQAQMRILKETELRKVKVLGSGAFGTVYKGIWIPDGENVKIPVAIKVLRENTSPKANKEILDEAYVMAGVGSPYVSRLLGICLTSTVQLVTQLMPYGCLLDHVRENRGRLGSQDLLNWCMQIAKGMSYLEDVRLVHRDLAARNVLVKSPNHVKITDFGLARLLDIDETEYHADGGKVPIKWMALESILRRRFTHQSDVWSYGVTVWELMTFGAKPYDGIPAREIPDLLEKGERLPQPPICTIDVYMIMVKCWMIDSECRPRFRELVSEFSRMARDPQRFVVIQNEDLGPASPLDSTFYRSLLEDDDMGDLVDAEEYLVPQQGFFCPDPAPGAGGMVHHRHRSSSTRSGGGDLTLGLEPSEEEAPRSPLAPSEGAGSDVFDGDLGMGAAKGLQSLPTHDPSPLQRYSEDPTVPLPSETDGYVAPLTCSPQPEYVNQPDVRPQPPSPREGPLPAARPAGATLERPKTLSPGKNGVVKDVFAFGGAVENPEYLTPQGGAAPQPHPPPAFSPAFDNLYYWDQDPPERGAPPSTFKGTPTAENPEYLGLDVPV
Tyrosine-protein kinase ABL1 (Homo sapiens), sequence (P00519 whole entry, the tested form may be a part): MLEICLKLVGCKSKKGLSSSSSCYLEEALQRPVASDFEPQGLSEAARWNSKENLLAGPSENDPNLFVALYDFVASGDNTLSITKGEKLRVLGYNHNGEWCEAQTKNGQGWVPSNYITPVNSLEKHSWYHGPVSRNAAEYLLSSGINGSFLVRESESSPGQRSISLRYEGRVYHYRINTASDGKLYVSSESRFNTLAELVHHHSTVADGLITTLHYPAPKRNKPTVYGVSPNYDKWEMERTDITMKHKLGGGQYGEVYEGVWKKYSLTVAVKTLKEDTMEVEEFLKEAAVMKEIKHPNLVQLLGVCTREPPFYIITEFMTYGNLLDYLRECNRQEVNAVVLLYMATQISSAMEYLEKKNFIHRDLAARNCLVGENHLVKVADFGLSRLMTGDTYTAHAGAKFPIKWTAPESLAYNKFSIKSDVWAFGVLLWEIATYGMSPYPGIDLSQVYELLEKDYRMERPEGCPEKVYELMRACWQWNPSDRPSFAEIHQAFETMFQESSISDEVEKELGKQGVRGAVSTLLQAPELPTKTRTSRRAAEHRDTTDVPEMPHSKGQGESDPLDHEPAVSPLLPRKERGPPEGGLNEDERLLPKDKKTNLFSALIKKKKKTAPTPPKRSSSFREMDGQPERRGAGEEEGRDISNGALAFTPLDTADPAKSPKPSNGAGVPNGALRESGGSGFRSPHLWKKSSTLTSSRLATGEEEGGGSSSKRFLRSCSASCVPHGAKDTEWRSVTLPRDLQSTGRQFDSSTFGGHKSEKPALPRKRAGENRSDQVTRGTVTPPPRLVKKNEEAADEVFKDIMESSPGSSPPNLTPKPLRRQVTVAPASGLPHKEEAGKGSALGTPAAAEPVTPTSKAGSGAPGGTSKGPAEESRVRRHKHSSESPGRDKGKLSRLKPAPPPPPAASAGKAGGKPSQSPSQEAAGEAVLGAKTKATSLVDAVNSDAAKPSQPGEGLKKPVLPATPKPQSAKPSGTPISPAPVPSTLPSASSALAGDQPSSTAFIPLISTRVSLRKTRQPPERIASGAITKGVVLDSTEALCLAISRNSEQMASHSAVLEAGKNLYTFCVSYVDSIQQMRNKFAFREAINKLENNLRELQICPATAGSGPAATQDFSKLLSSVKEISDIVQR
Hepatocyte growth factor receptor (Homo sapiens), sequence (P08581 whole entry, the tested form may be a part): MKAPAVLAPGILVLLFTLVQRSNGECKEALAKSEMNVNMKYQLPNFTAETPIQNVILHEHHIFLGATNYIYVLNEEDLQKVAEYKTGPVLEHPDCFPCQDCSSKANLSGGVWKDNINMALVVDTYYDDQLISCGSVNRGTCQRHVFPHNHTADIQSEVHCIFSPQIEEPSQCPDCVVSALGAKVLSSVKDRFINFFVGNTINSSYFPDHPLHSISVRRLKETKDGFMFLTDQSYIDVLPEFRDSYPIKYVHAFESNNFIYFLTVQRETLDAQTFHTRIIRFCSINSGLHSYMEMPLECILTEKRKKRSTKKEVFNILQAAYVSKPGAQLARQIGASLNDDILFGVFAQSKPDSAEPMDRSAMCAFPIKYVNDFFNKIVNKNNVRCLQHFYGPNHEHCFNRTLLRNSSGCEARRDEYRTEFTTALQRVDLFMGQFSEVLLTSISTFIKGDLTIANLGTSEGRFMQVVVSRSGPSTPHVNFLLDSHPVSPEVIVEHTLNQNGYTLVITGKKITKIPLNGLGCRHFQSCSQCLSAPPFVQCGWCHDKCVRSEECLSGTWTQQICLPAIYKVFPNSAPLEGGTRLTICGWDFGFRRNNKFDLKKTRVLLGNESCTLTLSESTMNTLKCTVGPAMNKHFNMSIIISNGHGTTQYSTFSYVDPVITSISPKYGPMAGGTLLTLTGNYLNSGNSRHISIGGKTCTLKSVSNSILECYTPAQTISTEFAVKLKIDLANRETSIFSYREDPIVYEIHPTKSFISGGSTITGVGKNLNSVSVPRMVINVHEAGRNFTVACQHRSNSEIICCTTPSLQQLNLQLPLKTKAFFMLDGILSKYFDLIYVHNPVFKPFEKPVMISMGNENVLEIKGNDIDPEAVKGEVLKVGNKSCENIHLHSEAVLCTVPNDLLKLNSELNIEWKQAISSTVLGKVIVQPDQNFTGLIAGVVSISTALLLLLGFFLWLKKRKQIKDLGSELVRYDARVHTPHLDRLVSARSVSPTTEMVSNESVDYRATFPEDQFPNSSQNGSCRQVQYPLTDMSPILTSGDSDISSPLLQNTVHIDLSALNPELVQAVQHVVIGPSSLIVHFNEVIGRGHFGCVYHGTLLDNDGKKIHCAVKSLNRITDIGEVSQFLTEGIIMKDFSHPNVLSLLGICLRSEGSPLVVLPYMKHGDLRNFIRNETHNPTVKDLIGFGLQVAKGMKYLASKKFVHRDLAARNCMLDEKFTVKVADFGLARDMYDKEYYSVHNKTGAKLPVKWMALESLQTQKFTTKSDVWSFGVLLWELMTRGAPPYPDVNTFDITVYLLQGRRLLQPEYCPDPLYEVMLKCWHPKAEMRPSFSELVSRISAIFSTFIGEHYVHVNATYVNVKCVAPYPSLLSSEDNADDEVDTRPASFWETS

In the case of `COc1cc(C(=O)NC2CCNCC2)ccc1Nc1nc(Nc2ccccc2P(C)(C)=O)c2cc[nH]c2n1`, the inhibition [1] is reported as 2%, the inhibition [2] is reported as 1% and the inhibition [3] is reported as 14%. The inhibition [4] was 5%, the inhibition [5] was -2% and the half-life at 1 µM [6] was over 145 min. It also gave an inhibition [7] of -3%, an inhibition [8] of 73% and an inhibition [9] of 0%. For the same compound, the inhibition [10] was 23%, the remaining at 1 h, 1 µM [11] was 76.3% and the inhibition [12] was 3%. For the same compound, the microsomal CLint at 1 µM [13] was 12.9 µL/min/mg, the Activity [14] was 6.37% and the inhibition [15] was 12%. The inhibition [16] was 100%, the Activity [17] was 13.27% and the CLH [18] was 39.9 mL/min/kg. For the same compound, the viability at 9 µM [19] was 29.1%, the remaining at 1 h, 1 µM [20] was 81.2% and the remaining at 1 h, 1 µM [21] was 75.4%. For the same compound, the Activity [22] was “Dose-dependent effect”, the Activity [23] was 4.72% and the inhibition [24] was 43%. It also gave an inhibition [25] of 0% and an inhibition [26] of 12%.
